Where a SMILES comes first, the peptide text is derived from it. Where no end group is shown, it is not given here.
How the values were obtained:
Myc-CxxC-AF9 = molecular target: T1, Myc-CxxC-AF9 (Homo sapiens, UniProt P42568+Q03164); assay: Streptavidin-biotin pull-down in HEK 293 cell lysate; assay type: binding; conditions: HEK 293 cell lysates
T1 construct: expressed in transfected cells; host or cells: HEK293
Procedure: (§1) To assess whether DOT1L 10-mer peptide can bind and block the interaction between full length DOT1L and MLL-fusion proteins HEK 293 cells were transiently co-transfected ith Flag-tagged human DOT1L protein and Myc-tagged CxxC-AF9 protein. The whole cell lysate was pre-incubated with different concentrations of DOT1L 10-mer peptide and co-immunoprecipitation (co-IP) experiments were performed. […] To further probe and confirm the cellular target for DOT1L 10-mer peptide, a biotinylated DOT1L 10-mer peptide was synthesized. To determine the binding affinity of this labeled peptide FP competitive based assay was used and tested together with corresponding unlabeled DOT1L 10 mer peptide.
Pull-down assay—HEK293 cells transfected with Myc-CxxC-AF9 were lysed in BC-300 lysis buffer in a same way as the immunoprecipitation experiment. The supernatant was pre-cleared for 2 h in streptavidin agarose beads (Thermal Scientific). The pre-cleared lysates were incubated with different concentrations of biotin-labeled DOT1L 10 mer peptide at 4° C. overnight. The next day, the cell lysate were incubated with streptavidin agarose at 4° C. for 2 h. After extensive washing the beads with the BC-300 lysis buffer without NP-40, the pull down samples were applied to SDS-PAGE electrophoresis and pull-down Myc-CxxC-AF9 protein was probed with goat monoclonal anti-Myc tag antibody (Abcam).

MBP tag = MBP tag (Escherichia coli, UniProt P0AEX9); assay: Isothermal titration calorimetry with MBP tag only; assay type: binding; conditions: ITC
Procedure: FIG. 4 describes isothermal titration calorimetry (ITC) of MBP tag only (80 μM) with a solution of DOT1L 16-mer (400 μM). The raw data are shown in the upper panel, and the integrated heat data are shown in the lower panel.
(§2) Isothermal titration calorimetry—ITC was carried out using a Nano-ITC Micro Calorimeter (TA Instruments) at 20° C. MBP-ENL (489-559) was dialysed extensively against 50 mM Na2HPO4, (pH 7.5) and 100 mM NaCl, and 80 μM was used for titration studies of DOT1L 16-mer and 10-mer peptides, and 110 μM for DOT1L 7-mer titration. Tested peptides dissolved in the same buffer at 400 μM (DOT1L 16-mer and 10-mer) or 500 μM (DOT1L 7-mer) were tested by injecting 2 μl aliquots into the protein sample, at time intervals of […], to ensure that the titration peak returned to the baseline. The ITC data were analyzed by NanoAnalyze software package using a one site-binding model.

MBP-ENL (489-559) = molecular target: T2, MBP-ENL (489-559) (Homo sapiens, UniProt Q03111); assay: Isothermal titration calorimetry with MBP-ENL; assay type: binding; conditions: ITC, MBP-tagged ENL, 1:1 stoichiometry; read-out: KD to ENL protein
T2 construct: MBP-ENL (489-559) was dialysed extensively; made in house; host or cells: Escherichia coli BL21 (DE3)
T2 sequence (Q03111 489-559): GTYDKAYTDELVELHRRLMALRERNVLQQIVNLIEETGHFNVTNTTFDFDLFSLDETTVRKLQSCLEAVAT
Procedure: as §2

AF9 [1] = molecular target: T3, AF9 (Homo sapiens, UniProt P42568); assay: Optimized competitive FP binding assay (N-Flu-DOT1L / AF9); design: the recombinant GB1-AF9 protein (residues 497-568); made in house; host or cells: Escherichia coli BL21 (DE3)
T3 sequence (P42568 497-568): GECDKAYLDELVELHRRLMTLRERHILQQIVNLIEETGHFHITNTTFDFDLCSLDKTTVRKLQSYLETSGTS

AF9 [2] = molecular target: T3, AF9; assay: Solution competitive SPR assay of peptides, AF9-DOT1L interaction; assay type: binding; design: against AF9(497-568) and ENL (489-559) proteins running different tested concentrations over CM5 chip; GB1 (pGB1-LIC vector); made in house; host or cells: Escherichia coli BL21 (DE3); conditions: read-out: IC50 against AF9 (block PPI DOT1L/AF9)
Procedure: (§3) Solution competitive SPR based assay was performed to determine the IC50 values of DOT1L peptides. […] Response units (RU) were measured at 15 seconds in the dissociation phase and the specific binding was calculated by subtracting the control surface (Fcl) signal from the surfaces with immobilized Mocr-DOT1L. IC50 values were determined by non-linear least squares analysis using Graph Pad Prism 5.0 software.

ENL = molecular target: T4, ENL (Homo sapiens, UniProt Q03111); assay: Solution competitive SPR assay of peptides, ENL-DOT1L interaction; assay type: binding; conditions: read-out: IC50 against ENL (block PPI DOT1L/ENL)
T4 construct: against AF9(497-568) and ENL (489-559) proteins running different tested concentrations over CM5 chip; MBP (pMSCG9-LIC vector); made in house; host or cells: Escherichia coli BL21 (DE3)
T4 sequence (Q03111 489-559): T2 sequence (Q03111 489-559)
Procedure: as §3

[3] = molecular target: T5, Flag-DOT1L and Myc-CxxC-AF9 interaction (Homo sapiens, UniProt P42568+Q03164); assay: Co-immunoprecipitation in HEK 293 cell lysate; assay type: binding; conditions: HEK 293 whole cell lysate pre-incubated with peptide
T5 construct: expressed in transfected cells; host or cells: HEK 293
Procedure: as §1
Cell Culture, Transfections, and Immunoprecipitation—HEK293 cells were plated in 100 mm culture dishes and cultured in Dulbecco's modified Eagle's medium (DMEM) supplemented with 10% FBS and antibiotics. Co-transfection with FLAG-DOTL and Myc-CxxC-AF9 was performed using Lipofectamine 2000 (Invitrogen). […] After incubation, the beads were washed extensively, boiled in SDS loading buffer and analyzed by western blotting using mouse monoclonal anti-FLAG M2 (Sigma-Aldrich) and goat monoclonal anti-Myc tag (Abcam) antibody.

T1 sequence (Q03164+P42568 fused): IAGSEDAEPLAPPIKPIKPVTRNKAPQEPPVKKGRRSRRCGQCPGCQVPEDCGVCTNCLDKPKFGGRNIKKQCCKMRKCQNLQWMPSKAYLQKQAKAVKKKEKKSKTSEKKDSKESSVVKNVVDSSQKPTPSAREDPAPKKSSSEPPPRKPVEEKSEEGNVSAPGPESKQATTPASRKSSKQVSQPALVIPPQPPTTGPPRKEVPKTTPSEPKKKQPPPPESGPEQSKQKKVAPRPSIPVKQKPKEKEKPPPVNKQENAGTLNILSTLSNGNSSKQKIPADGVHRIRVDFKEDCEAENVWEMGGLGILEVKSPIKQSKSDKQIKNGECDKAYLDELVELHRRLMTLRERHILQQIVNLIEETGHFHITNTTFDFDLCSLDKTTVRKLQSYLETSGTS
T5 sequence (Q03164+P42568 fused): as above

Molecule	binding to cellular CxxC-AF9 (pull-down) (Myc-CxxC-AF9)	binding to the MBP tag only (MBP tag)	Kd (MBP-ENL (489-559)) [nM]	Ki (AF9 [1]) [nM]	IC50 (AF9 [2]) [nM]	IC50 (ENL) [nM]	disruption of DOT1L / CxxC-AF9 interaction (co-IP) [3]
biotinylated DOT1L 10-mer peptide: DOT1L 10-mer peptide with N-terminal biotin group (LPISIPLSTV-NH2; not fully specified (N-terminus); also: N-terminal biotin coupled to lysine and two β-alanine spacer, order not given here)	recognizes and binds to the cellular CxxC-AF9 protein in a dose dependent manner						
CC[C@H](C)[C@H](NC(=O)[C@@H]1CCCN1C(=O)[C@H](CC(C)C)NC(C)=O)C(=O)N[C@@H](CO)C(=O)N[C@H](C(=O)N1CCC[C@H]1C(=O)N[C@@H](CC(C)C)C(=O)N[C@@H](CO)C(=O)N[C@H](C(=O)N[C@H](C(=O)N[C@@H](CCC(N)=O)C(=O)N1CCC[C@H]1C(=O)N[C@@H](CC(N)=O)C(=O)N[C@@H](CCCCN)C(=O)N[C@@H](CC(C)C)C(=O)N1CCC[C@H]1C(N)=O)C(C)C)[C@@H](C)O)[C@@H](C)CC [DOT1L 16 mer] (Ac-LPISIPLSTVQPNKLP-NH2)		did not show any binding	900	80	320	1560	
CC[C@H](C)[C@H](NC(=O)[C@@H]1CCCN1C(=O)[C@H](CC(C)C)NC(C)=O)C(=O)N[C@@H](CO)C(=O)N[C@H](C(=O)N1CCC[C@H]1C(=O)N[C@@H](CC(C)C)C(=O)N[C@@H](CO)C(=O)N[C@H](C(=O)N[C@H](C(N)=O)C(C)C)[C@@H](C)O)[C@@H](C)CC [DOT1L 10mer] (Ac-LPISIPLSTV-NH2)			1100	68 ± 15	490	1340	blocks the interaction of cellular DOT1L with CxxC-AF9 in a dose dependent manner

Reference: US9862746B2, “Compositions and methods relating to hindering DOT1L recruitment by MLL-fusion proteins” (The Regents of the University of Michigan, priority 2013, dated 2018)
